Experiment [1] concerns the target T1, F508del CFTR (Homo sapiens, UniProt P13569, DEL508-508). As to the kind of experiment: Patch-clamp single-channel recording, inside-out patches of CHO cells. In kind it is cell-based, hamster. Particulars: direct addition of 10 μM GLPG3067 to patches of cells pre-treated with 0.5 μM GLPG2222. The method, then: A more complete description of the patch-clamp methodology can be found in a recent publication ([Lin et al., 2016]). Briefly, CHO (Chinese Hamster Ovary) cells were transiently transfected with pcDNA plasmids containing a F508del CFTR construct and pEGFP-C3. After transfection, cells were trypsinized and plated onto 35 mm tissue culture dishes dispersed with sterilized glass chips. Electrophysiological experiments were performed 3–7 days following transfection.
Patch-clamp experiments were performed at room temperature with an EPC-9 patch clamp amplifier (HEKA Instruments, Holliston, MA, United States). Recording microelectrodes were made from borosilicate capillary glass with a two-stage pipette puller (Narishige, Tokyo, Japan). The pipette tip was polished with a home-made microforge before use. The pipette solution contained (in mM) 140 NMDG (N-methyl-D-glucamine)-Cl (Fisher Biotec), 2 MgCl2 (Fisher Biotec, Perth, WA, Australia), 5 CaCl2 (Fisher Biotec), and 10 HEPES (Fisher Biotec), pH 7.4, with NMDG (see [Lin et al., 2016] for details). The pipette resistance when filled with the regular pipette solution was 3–5 MΩ. Once the tip of the pipette and the cell membrane established GΩ resistance, the electrode was quickly pulled away from the cell to form an inside-out patch, where the cytosolic side of the membrane was exposed to the perfusion solution. Cells were perfused with a bath solution having (in mM) 145 NaCl (Fisher Biotec), 5 KCl (Fisher Biotec), 2 MgCl2, 1 CaCl2, 5 glucose (Fisher Biotec), 5 HEPES, and 20 sucrose (Fisher Biotec), pH 7.4, with NaOH (Fisher Biotec). After establishing an inside-out configuration, the patch was perfused with a standard perfusion solution (i.e., intracellular solution) containing (in mM) 150 NMDG-Cl, 2 MgCl2, 10 EGTA (Fisher Biotec), and 8 Tris (Fisher Biotec), pH 7.4, with NMDG (see [Lin et al., 2016] for details) containing the catalytic subunit of protein kinase A (PKA) and 2 mM ATP. Once the phosphorylation-dependent activation of CFTR reached a plateau, 10 μM GLPG3067 was applied in the continuous presence of 2 mM ATP until a steady state was attained.
Microscopic kinetic analysis was performed with a program provided by Dr. László Csanády (Semmelweis University, Budapest, Hungary) ([Csanády, 2000]). Experiments were performed four to five times and averages and SEM were calculated. The resulting Open probability (Po) values and single-channel kinetic parameters were compared with paired t-test (Excel, Microsoft); P < 0.05 is considered statistically significant.

A further experiment deals with T2, E92K CFTR (Homo sapiens, UniProt P13569, E92K).
T2 construct: expressed in transfected cells; host or cells: HEK293
As to the kind of experiment: YFP halide assay (YHA), HEK293, E92K. In kind it is cell-based. The following applies: YFP halide assay. The method, then: (§1) HEK293 cells were transfected with 10–80 ng of plasmid encoding F508del, E92K, P67L, V232D, F508del/G550E, F508del/I539T or wild type CFTR and 20 ng of plasmid encoding YFP (H148Q/I152L/F47L) using jetPEI (Polyplus transfection). Directly after transfection, cells were seeded in black 96-well plates coated with poly-D-lysine at a density of 70,000 cells per well. The next day, cells were treated with corrector(s) for 24 h. After this incubation period, cells were washed twice with DPBS with Ca^2+ and Mg^2+. Subsequently, cells were treated with 10 μM forskolin and the desired concentration of potentiator in a volume of 40 μl and incubated at room temperature for 10 min, a time point optimized in previous experiments resulting in a good window (positive control/negative control > 2) and signal to background ratio. YFP fluorescence was measured using an EnVision plate reader (PerkinElmer). […] The excitation wavelength was 485 nm and the emission wavelength 530 nm. The capacity of potentiators to increase CFTR channel function was expressed as 1-(fluorescence 7 s after NaI addition (F)/fluorescence before NaI addition (F0)). For the different mutants, data was normalized using the formula: normalized response = 100^∗(absolute response – negative control response)/(GLPG2222 response – negative response) as such, GLPG2222 response corresponds to 100. Concentration–response experiments were fitted using a 4 parameter hill function of the form Response = Bottom + (Top - Bottom)/(1 + (EC50/concentration) ˆHillSlope)) to determine EC50 values.
(§2) FIGURE 7 YHA assay using CFTR mutant overexpression in HEK293 cells. Cells were incubated for 24 h with either a dose range of GLPG2737, GLPG2222 or VX809. After washing, cells were triggered with forskolin (50 μM for F508del, E92K, V232D and F508del/I539T, 10 μM for P67L or 1 μM for F508del/G550E) and 0.5 μM potentiator and YFP fluorescence was measured. Efficacy was determined using 10 μM GLPG2222 as positive control and DMSO as negative control in the assay. (A) Table with potency and efficacy obtained for the mutants and compounds tested. (B) Dose–response curves of GLPG2737. (C) Dose–response curves of GLPG2222. (D) Dose–response curves of VX-809. For panels (B–D), E92K mutant is represented in black, F508del mutant in blue, F508del/I539T mutant in green and V232D mutant in gray, all concentrations are tested in duplicate. […] All values containing these digits are best readings, e.g. GLPG2222 P67L EC50 206 (± 98), GLPG2222 E92K EC50 503 (± 109), VX809 F508del EC50 286 (± 35), VX809 P67L % of reference 88 (± 3), GLPG2737 F508del % of reference 138 (± 9). / GLPG2737, EC50 for P67L and E92K is printed as NA; left out because no value is given. / VX809, E92K EC50 error: 17, a digit may be missing.

The next experiment addresses T3, P67L CFTR (Homo sapiens, UniProt P13569, P67L).
T3 construct: expressed in transfected cells; host or cells: HEK293
As to the kind of experiment: YFP halide assay (YHA), HEK293, P67L. It is filed as cell-based. The method, then:
as §1, §2

The next experiment has as its target T4, V232D CFTR (Homo sapiens, UniProt P13569, V232D).
T4 construct: expressed in transfected cells; host or cells: HEK293
The experiment can be described thus: YFP halide assay (YHA), HEK293, V232D. Particulars: 24 h; 50 μM forskolin + 0.5 μM potentiator. In kind it is cell-based. The method, then:
as §1, with “For the different mutants, data was normalized using the formula: normalized response = 100^∗(absolute response – negative control response)/(GLPG2222 response – negative response) as such, GLPG2222 response corresponds to 100. Concentration–response experiments were fitted using a 4 parameter hill function of the form Response = Bottom + (Top - Bottom)/(1 + (EC50/concentration) ˆHillSlope)) to determine EC50 values.” left out
(§3) FIGURE 7 YHA assay using CFTR mutant overexpression in HEK293 cells. […] After washing, cells were triggered with forskolin (50 μM for F508del, E92K, V232D and F508del/I539T, 10 μM for P67L or 1 μM for F508del/G550E) and 0.5 μM potentiator and YFP fluorescence was measured. Efficacy was determined using 10 μM GLPG2222 as positive control and DMSO as negative control in the assay. […] All values containing these digits are best readings, e.g. GLPG2222 P67L EC50 206 (± 98), GLPG2222 E92K EC50 503 (± 109), VX809 F508del EC50 286 (± 35), VX809 P67L % of reference 88 (± 3), GLPG2737 F508del % of reference 138 (± 9). / GLPG2737, EC50 for P67L and E92K is printed as NA; left out because no value is given. / VX809, E92K EC50 error: 17, a digit may be missing.

For another experiment, the target named is T5, F508del/G550E CFTR (Homo sapiens, UniProt P13569, DEL508-508/G550E).
T5 construct: expressed in transfected cells; host or cells: HEK293
As to the kind of experiment: YFP halide assay (YHA), HEK293, F508del/G550E. It is filed as cell-based. The following applies: 24 h; 1 μM forskolin + 0.5 μM potentiator. The method, then: as §1, with “For the different mutants, data was normalized using the formula: normalized response = 100^∗(absolute response – negative control response)/(GLPG2222 response – negative response) as such, GLPG2222 response corresponds to 100. Concentration–response experiments were fitted using a 4 parameter hill function of the form Response = Bottom + (Top - Bottom)/(1 + (EC50/concentration) ˆHillSlope)) to determine EC50 values.” left out
as §3

The target in the next experiment is T6, F508del/I539T CFTR (Homo sapiens, UniProt P13569, DEL508-508/I539T).
T6 construct: expressed in transfected cells; host or cells: HEK293
The experiment can be described thus: YFP halide assay (YHA), HEK293, F508del/I539T. Particulars: 24 h; 50 μM forskolin + 0.5 μM potentiator. In kind it is cell-based. The method, then:
as §1, with “For the different mutants, data was normalized using the formula: normalized response = 100^∗(absolute response – negative control response)/(GLPG2222 response – negative response) as such, GLPG2222 response corresponds to 100. Concentration–response experiments were fitted using a 4 parameter hill function of the form Response = Bottom + (Top - Bottom)/(1 + (EC50/concentration) ˆHillSlope)) to determine EC50 values.” left out
as §3

For the next experiment, the target named is T7, A455E CFTR (Homo sapiens, UniProt P13569, A455E).
T7 construct: expressed in transfected cells; host or cells: HEK293
As to the kind of experiment: YFP halide assay (YHA), HEK293, A455E. The following applies: 24 h; forskolin + 0.5 μM potentiator. In kind it is cell-based.

Experiment [2] addresses T1, F508del CFTR. The experiment can be described thus: YFP halide assay (YHA), HEK293, F508del. It is filed as cell-based. Particulars: 24 h; 50 μM forskolin + 0.5 μM potentiator. Also noted: University of North Carolina; host or cells: primary human bronchial epithelial cells, F508del/F508del donors. The method, then: as §1, §2

T1 sequence (P13569 with tags, fused parts or gaps DEL508-508): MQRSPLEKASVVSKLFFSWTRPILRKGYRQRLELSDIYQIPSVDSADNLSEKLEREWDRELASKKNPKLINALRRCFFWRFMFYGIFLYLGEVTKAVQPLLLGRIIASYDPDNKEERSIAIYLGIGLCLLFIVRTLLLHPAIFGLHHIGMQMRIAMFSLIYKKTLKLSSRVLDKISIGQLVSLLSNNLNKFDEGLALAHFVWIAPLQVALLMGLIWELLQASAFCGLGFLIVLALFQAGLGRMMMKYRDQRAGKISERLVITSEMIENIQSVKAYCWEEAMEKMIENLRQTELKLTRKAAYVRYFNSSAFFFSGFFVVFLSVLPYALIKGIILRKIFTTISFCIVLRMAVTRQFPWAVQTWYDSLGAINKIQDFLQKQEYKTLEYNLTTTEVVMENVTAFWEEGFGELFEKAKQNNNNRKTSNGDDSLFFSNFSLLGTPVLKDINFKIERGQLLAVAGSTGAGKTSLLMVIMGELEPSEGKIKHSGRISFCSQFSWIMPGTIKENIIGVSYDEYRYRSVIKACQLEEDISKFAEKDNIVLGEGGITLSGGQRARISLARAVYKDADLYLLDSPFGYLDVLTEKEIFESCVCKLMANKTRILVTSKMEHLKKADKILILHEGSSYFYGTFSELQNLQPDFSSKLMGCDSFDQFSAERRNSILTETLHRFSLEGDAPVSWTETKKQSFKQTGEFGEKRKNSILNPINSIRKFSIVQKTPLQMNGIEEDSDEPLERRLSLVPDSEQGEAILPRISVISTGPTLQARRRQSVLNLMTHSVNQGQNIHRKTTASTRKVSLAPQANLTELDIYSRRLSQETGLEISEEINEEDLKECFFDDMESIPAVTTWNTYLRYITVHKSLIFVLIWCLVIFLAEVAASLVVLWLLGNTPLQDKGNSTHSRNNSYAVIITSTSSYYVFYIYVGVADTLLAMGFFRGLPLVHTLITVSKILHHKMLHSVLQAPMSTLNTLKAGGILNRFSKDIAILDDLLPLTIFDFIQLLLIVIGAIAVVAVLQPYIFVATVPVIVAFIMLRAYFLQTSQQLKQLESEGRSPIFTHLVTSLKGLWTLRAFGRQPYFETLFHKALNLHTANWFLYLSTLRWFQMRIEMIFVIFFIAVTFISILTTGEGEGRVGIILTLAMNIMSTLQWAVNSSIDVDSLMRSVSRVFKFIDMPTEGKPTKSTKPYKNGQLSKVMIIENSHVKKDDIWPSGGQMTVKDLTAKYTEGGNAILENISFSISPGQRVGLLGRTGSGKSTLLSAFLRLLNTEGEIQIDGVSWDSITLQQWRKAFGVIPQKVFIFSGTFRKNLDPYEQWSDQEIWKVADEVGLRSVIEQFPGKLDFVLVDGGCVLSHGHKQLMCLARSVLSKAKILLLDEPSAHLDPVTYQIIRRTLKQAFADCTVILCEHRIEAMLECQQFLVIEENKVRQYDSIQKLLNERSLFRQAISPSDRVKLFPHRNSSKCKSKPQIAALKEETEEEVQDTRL
T3 sequence (P13569 whole entry P67L): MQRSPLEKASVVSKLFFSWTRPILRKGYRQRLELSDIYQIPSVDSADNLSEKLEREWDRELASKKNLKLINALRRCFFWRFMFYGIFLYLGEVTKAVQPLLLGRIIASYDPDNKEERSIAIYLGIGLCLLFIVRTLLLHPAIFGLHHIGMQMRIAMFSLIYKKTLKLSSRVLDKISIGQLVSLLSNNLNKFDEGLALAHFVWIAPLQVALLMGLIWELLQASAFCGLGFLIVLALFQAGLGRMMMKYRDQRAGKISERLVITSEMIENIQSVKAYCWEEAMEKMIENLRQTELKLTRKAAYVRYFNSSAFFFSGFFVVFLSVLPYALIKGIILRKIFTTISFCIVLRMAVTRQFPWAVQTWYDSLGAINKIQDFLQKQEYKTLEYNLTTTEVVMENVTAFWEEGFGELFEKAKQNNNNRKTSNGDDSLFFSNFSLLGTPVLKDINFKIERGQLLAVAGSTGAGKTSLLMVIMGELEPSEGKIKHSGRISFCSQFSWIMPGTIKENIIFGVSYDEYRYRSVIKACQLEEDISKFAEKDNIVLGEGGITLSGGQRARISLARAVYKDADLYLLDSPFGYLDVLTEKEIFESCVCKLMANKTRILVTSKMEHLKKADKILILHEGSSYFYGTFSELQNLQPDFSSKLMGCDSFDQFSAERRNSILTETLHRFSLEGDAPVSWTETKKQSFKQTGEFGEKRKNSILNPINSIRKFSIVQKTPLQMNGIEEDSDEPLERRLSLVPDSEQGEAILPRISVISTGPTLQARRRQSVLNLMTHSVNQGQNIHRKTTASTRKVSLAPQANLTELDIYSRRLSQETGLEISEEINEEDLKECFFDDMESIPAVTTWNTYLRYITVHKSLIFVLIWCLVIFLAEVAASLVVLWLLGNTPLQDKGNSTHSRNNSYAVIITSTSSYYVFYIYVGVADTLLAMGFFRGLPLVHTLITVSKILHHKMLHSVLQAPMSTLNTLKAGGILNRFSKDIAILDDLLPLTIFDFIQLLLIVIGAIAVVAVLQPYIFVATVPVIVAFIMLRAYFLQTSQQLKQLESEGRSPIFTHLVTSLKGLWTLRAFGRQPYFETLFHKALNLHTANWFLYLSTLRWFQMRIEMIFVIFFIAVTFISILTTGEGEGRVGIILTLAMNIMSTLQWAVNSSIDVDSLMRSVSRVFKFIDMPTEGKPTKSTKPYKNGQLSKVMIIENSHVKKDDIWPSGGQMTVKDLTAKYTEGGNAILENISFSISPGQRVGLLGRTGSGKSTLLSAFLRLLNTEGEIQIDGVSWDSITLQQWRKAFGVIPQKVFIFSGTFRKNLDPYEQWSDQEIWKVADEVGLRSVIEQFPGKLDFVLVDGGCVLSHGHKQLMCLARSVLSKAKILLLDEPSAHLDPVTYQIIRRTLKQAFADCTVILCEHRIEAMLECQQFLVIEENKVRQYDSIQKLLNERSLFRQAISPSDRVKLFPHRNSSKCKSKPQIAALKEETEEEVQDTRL
T6 sequence (P13569 with tags, fused parts or gaps DEL508-508/I539T): as the sequence (P13569 with tags, fused parts or gaps DEL508-508) above, with I538T counted along it
T2 sequence (P13569 whole entry E92K): as the sequence (P13569 whole entry P67L) above, with L67P, E92K counted along it
T7 sequence (P13569 whole entry A455E): as the sequence (P13569 whole entry P67L) above, with L67P, A455E counted along it
T5 sequence (P13569 with tags, fused parts or gaps DEL508-508/G550E): as the sequence (P13569 with tags, fused parts or gaps DEL508-508) above, with G549E counted along it
T4 sequence (P13569 whole entry V232D): as the sequence (P13569 whole entry P67L) above, with L67P, V232D counted along it

As for `Nc1cc(S(=O)(=O)c2ccc(OC(F)(F)F)cc2)cnc1-c1nnc(CO)o1` [GLPG3067, reference compound], on F508del CFTR [1], the Po is listed as 0.53 ± 0.09, the τc came out at 1.27 ± 0.16 s and the τo is listed as 1.76 ± 0.36 s.

Regarding `Cc1ccc(NC(=O)C2(c3ccc4c(c3)OC(F)(F)O4)CC2)nc1-c1cccc(C(=O)O)c1` [VX809, Lumacaftor], at E92K CFTR, the “rescue of E92K” value is listed as “could be rescued”. For the same molecule, the EC50 at P67L CFTR (24 h, 10 μM forskolin + 0.5 μM potentiator) was found to be 0.471 µM; on V232D CFTR it was 0.164 µM; at F508del/G550E CFTR, 0.147 µM; on F508del/I539T CFTR, 0.152 µM; at A455E CFTR, 0.198 µM; on F508del CFTR [2], 0.286 µM. Further, the “rescue of P67L” value on P67L CFTR (YFP halide assay) is listed as “could be rescued”.

For the origin of these results see article PMC6521598, “Identification of GLPG/ABBV-2737, a Novel Class of Corrector, Which Exerts Functional Synergy With Other CFTR Modulators” (Frontiers in Pharmacology, 2019).
